From US10188634B2, “3-(3H-imidazo[4,5-C]pyridin-2-yl)-1 H-pyrazolo[4,3-B]pyridines and therapeutic uses thereof” (Samumed, LLC, priority 2015, dated 2019)

Tests used:
IL-6 in THP-1 cells = assay: Inhibition of IL-6 in LPS-stimulated THP-1 human monocyte cells (HTRF); format: cell-based; conditions: IL-6 HTRF; for EC50: 500 ng/mL LPS, 22 hours; for inhibition at 10 µM: LPS, read-out: percent inhibition in brackets (given for EC50 >10 μM)
Procedure, shortened: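 IL-6 was quantified by HTRF ratio after LPS (500 ng/mL, 22 h) stimulation of THP-1 monocytes pretreated 2 h with compound, 10-point 1:3 dilutions from 10 μM, 0.1% DMSO. Cells were held in 1% FBS for 24 h beforehand. Values normalised to DMSO; four-parameter EC50, or % inhibition at 10 μM above that.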

[1] = tested on: LL29 cells (primary human fibroblasts derived from IPF patients) treated with TGF-β1, α-smooth muscle actin; assay: Inhibition of the fibrotic process: αSMA staining in TGF-β1 treated primary human fibroblasts from IPF patients (LL29 cells); format: cell-based; conditions: Fibroblast, 96 h; for EC50: LL29 cells treated with TGF-β1 (20 ng/mL), 4 days; for inhibition at 10 µM: LL29 cells treated with TGF-β1, 4 days, read-out: percent inhibition in brackets (given for EC50 >10 μM)

| EC50 (IL-6 in THP-1 cells) [µM] | Structure (SMILES) | inhibition at 10 µM (IL-6 in THP-1 cells) [%] | EC50 [1] [µM] | inhibition at 10 µM [1] [%] |
| --- | --- | --- | --- | --- |
| > 10 | COc1cccc(-c2cncc3[nH]c(-c4n[nH]c5ccc(-c6cncc(OC7CCNCC7)c6)nc45)nc23)c1 [Compound 980, 3-(7-(3-Methoxylphenyl)-3H-imidazo[4,5-c]pyridin-2-yl)-5-(5-(piperidin-4-yloxy)pyridin-3-yl)-1H-pyrazolo[4,3-b]pyridine] | 34.1 | 2.72 |  |
| > 10 | Cn1cc(-c2ccc3[nH]nc(-c4nc5c(-c6cccc(F)c6)cncc5[nH]4)c3n2)cn1 [Compound 480, 3-(7-(3-Fluorophenyl)-3H-imidazo[4,5-c]pyridin-2-yl)-5-(1-methyl-1H-pyrazol-4-yl)-1H-pyrazolo[4,3-b]pyridine] | 9.7 | > 10 | 4.2 |
| > 10 | CN1CCN(c2cncc3[nH]c(-c4n[nH]c5ccc(-c6cncc(NC(=O)C7CCCC7)c6)nc45)nc23)CC1 [Compound 246, N-(5-(3-(7-(4-Methylpiperazin-1-yl)-3H-imidazo[4,5-c]pyridin-2-yl)-1H-pyrazolo[4,3-b]pyridin-5-yl)pyridin-3-yl)cyclopentanecarboxamide] | 0 | > 10 | 48.7 |
| > 10 | CCNCc1cncc(-c2ccc3[nH]nc(-c4nc5c(-c6ccoc6)cncc5[nH]4)c3n2)c1 [Compound 286, N-((5-(3-(7-(Furan-3-yl)-3H-imidazo[4,5-c]pyridin-2-yl)-1H-pyrazolo[4,3-b]pyridin-5-yl)pyridin-3-yl)methyl)ethanamine] | 14.5 | > 10 | 0 |
| > 10 | CS(=O)(=O)NCc1cc(F)cc(-c2cncc3[nH]c(-c4n[nH]c5ccc(-c6cncc(NC(=O)CC7CCNCC7)c6)nc45)nc23)c1 [Compound 725, N-(5-(3-(7-(3-Fluoro-5-(methylsulfonamidomethyl)phenyl)-3H-imidazo[4,5-c]pyridin-2-yl)-1H-pyrazolo[4,3-b]pyridin-5-yl)pyridin-3-yl)-2-(piperidin-4-yl)acetamide] | 27.1 | > 10 | 40.9 |
| > 10 | c1ccc(COc2cncc(-c3ccc4[nH]nc(-c5nc6c(-c7ccncc7)cncc6[nH]5)c4n3)c2)cc1 [Compound 554, 5-(5-(Benzyloxy)pyridin-3-yl)-3-(7-(pyridin-4-yl)-3H-imidazo[4,5-c]pyridin-2-yl)-1H-pyrazolo[4,3-b]pyridine] | 50.3 | 1.03 |  |

More lines, now with the values behind:

| Structure (SMILES) | EC50 (IL-6 in THP-1 cells) [µM] | inhibition at 10 µM (IL-6 in THP-1 cells) [%] | EC50 [1] [µM] | inhibition at 10 µM [1] [%] |
| --- | --- | --- | --- | --- |
| Cc1cn(-c2cncc3[nH]c(-c4n[nH]c5ccc(-c6cncc(CN7CCCC7)c6)nc45)nc23)cn1 [Compound 210, 3-(7-(4-Methyl-1H-imidazol-1-yl)-3H-imidazo[4,5-c]pyridin-2-yl)-5-(5-(pyrrolidin-1-ylmethyl)pyridin-3-yl)-1H-pyrazolo[4,3-b]pyridine] | > 10 | 13 | > 10 | 0 |
| Fc1cccc(-c2cncc3[nH]c(-c4n[nH]c5ccc(C6=CCNCC6)nc45)nc23)c1 [Compound 478, 3-(7-(3-Fluorophenyl)-3H-imidazo[4,5-c]pyridin-2-yl)-5-(1,2,3,6-tetrahydropyridin-4-yl)-1H-pyrazolo[4,3-b]pyridine] | > 10 | 18.6 | 4.99 |  |
| CS(=O)(=O)NCc1cc(F)cc(-c2cncc3[nH]c(-c4n[nH]c5ccc(-c6cncnc6)nc45)nc23)c1 [Compound 475, N-(3-Fluoro-5-(2-(5-(pyrimidin-5-yl)-1H-pyrazolo[4,3-b]pyridin-3-yl)-3H-imidazo[4,5-c]pyridin-7-yl)benzyl)methanesulfonamide] | > 10 | 0 | 2.44 |  |
| O=C(Nc1cncc(-c2ccc3[nH]nc(-c4nc5c(-c6ccccn6)cncc5[nH]4)c3n2)c1)c1ccccc1 [Compound 151, N-(5-(3-(7-(Pyridin-2-yl)-3H-imidazo[4,5-c]pyridin-2-yl)-1H-pyrazolo[4,3-b]pyridin-5-yl)pyridin-3-yl)benzamide] | > 10 | 20.3 | > 10 | 38.8 |
| Cn1cc(-c2ccc3[nH]nc(-c4nc5c(-c6ccc7c(c6)OCO7)cncc5[nH]4)c3n2)c(CO)n1 [Compound 1106, (4-(3-(7-(Benzo[d][1,3]dioxol-5-yl)-3H-imidazo[4,5-c]pyridin-2-yl)-1H-pyrazolo[4,3-b]pyridin-5-yl)-1-methyl-1H-pyrazol-3-yl)methanol] | > 10 | 0 | 2.42 |  |
| CS(=O)(=O)NCc1cc(F)cc(-c2cncc3[nH]c(-c4n[nH]c5ccc(-c6cncc(CNCc7ccccc7)c6)nc45)nc23)c1 [Compound 472, N-(3-(2-(5-(5-((Benzylamino)methyl)pyridin-3-yl)-1H-pyrazolo[4,3-b]pyridin-3-yl)-3H-imidazo[4,5-c]pyridin-7-yl)-5-fluorobenzyl)methanesulfonamide] | > 10 | 39.3 | 7.27 |  |
| CN1CCN(c2cncc3[nH]c(-c4n[nH]c5ccc(-c6cncc(N)c6)nc45)nc23)CC1 [Compound 227, 5-(3-(7-(4-Methylpiperazin-1-yl)-3H-imidazo[4,5-c]pyridin-2-yl)-1H-pyrazolo[4,3-b]pyridin-5-yl)pyridin-3-amine] | > 10 | 38 | 4.83 |  |
| O=C(Nc1cncc(-c2ccc3[nH]nc(-c4nc5c(-c6ccc(F)cc6)cncc5[nH]4)c3n2)c1)C1CCC1 [Compound 49, N-(5-(3-(7-(4-Fluorophenyl)-3H-imidazo[4,5-c]pyridin-2-yl)-1H-pyrazolo[4,3-b]pyridin-5-yl)pyridin-3-yl)cyclobutanecarboxamide] | > 10 | 37.7 | 3.23 |  |
| Cn1cc(-c2ccc3[nH]nc(-c4nc5c(-c6cccs6)cncc5[nH]4)c3n2)cn1 [Compound 656, 5-(1-Methyl-1H-pyrazol-4-yl)-3-(7-(thiophen-2-yl)-3H-imidazo[4,5-c]pyridin-2-yl)-1H-pyrazolo[4,3-b]pyridine] | > 10 | 14.8 | > 10 | 46.4 |
| CN(C)CCNc1cc(F)cc(-c2cncc3[nH]c(-c4n[nH]c5ccc(-c6cncc(OCCN7CCCC7)c6)nc45)nc23)c1 [Compound 742, N^1-(3-Fluoro-5-(2-(5-(5-(2-(pyrrolidin-1-yl)ethoxy)pyridin-3-yl)-1H-pyrazolo[4,3-b]pyridin-3-yl)-3H-imidazo[4,5-c]pyridin-7-yl)phenyl)-N^2,N^2-dimethylethane-1,2-diamine] | 8.86 |  | > 10 | 0 |
| CCCCC(=O)Nc1cncc(-c2ccc3[nH]nc(-c4nc5c(-c6cc(F)cc(NCCN(C)C)c6)cncc5[nH]4)c3n2)c1 [Compound 439, N-(5-(3-(7-(3-((2-(Dimethylamino)ethyl)amino)-5-fluorophenyl)-3H-imidazo[4,5-c]pyridin-2-yl)-1H-pyrazolo[4,3-b]pyridin-5-yl)pyridin-3-yl)pentanamide] | > 10 | 31.5 | 0.248 |  |
| Oc1cncc(-c2ccc3[nH]nc(-c4nc5c(-c6cccnc6)cncc5[nH]4)c3n2)c1 [Compound 537, 5-(3-(7-(Pyridin-3-yl)-3H-imidazo[4,5-c]pyridin-2-yl)-1H-pyrazolo[4,3-b]pyridin-5-yl)pyridin-3-ol] | 0.414 |  | > 10 | 49.8 |
| COc1cccc(-c2cncc3[nH]c(-c4n[nH]c5ccc(-c6cccnc6)nc45)nc23)c1 [Compound 949, 3-(7-(3-Methoxylphenyl)-3H-imidazo[4,5-c]pyridin-2-yl)-5-(pyridin-3-yl)-1H-pyrazolo[4,3-b]pyridine] | 0.682 |  | 6.53 |  |
